# Experiments:
# Format in all cases: in vivo
# [1] = test system: purple deadnettle (Lamium purpureum); experiment: Postemergence herbicidal activity in oilseed rape (canola), purple deadnettle; parameters: unit not given here; settings: oilseed rape (canola) test, visual rating after 21 d, probit analysis, dose to kill or control 80 percent
# Experimental: (§1) Seeds of oilseed rape (canola) and the desired weed species were planted in Sun Gro MetroMix® 360 planting mixture, which typically has a pH of 6.0 to 6.8 and an organic matter content of about 30 percent, in plastic pots with a surface area of 95 cm^2. When required to ensure good germination and healthy plants, a fungicide treatment and/or other chemical or physical treatment was applied. The plants were grown for 15-28 d in a greenhouse with an approximate 15-h photoperiod which was maintained at about 23-29° C. during the day and 22-28° C. during the night. Nutrients and water were added on a regular basis and supplemental lighting was provided with overhead metal halide 1000-Watt lamps as necessary. The oilseed rape (canola) plants were utilized for testing when they reached the third or fourth true leaf stage. The weed species were utilized at the fourth true leaf stage.
# (§2) A weighed amount, determined by the highest rate to be tested, of each test compound was dissolved in 4 mL of a 97:3 v/v mixture of acetone and DMSO to obtain concentrated stock solutions. […] The concentrated stock solutions obtained were diluted with 20 mL of an aqueous mixture containing acetone, water and Agri-Dex crop oil concentrate, in a 16.7:82.1:1.25 v/v ratio to obtain spray solutions containing the highest application rates. Additional application rates were obtained by serial dilution of 12 mL of the high rate solution into a solution containing 2 mL of 97:3 v/v mixture of acetone and DMSO and 10 mL of an aqueous mixture containing acetone, water and Agri-Dex crop oil concentrate, in a 16.7:82.1:1.25 v/v ratio to obtain ½×, ¼×, ⅛× and 1/16× rates of the high rate. Compound requirements are based upon a 12 mL application volume at a rate of 187 L/ha. Formulated compounds were applied to the plant material with an overhead Mandel track sprayer equipped with 8002E nozzles calibrated to deliver 187 L/ha over an application area of 0.503 m^2 at a spray height of 18 inches (43 cm) above the average plant canopy height. Control plants were sprayed in the same manner with the solvent blank.
# (§3) The treated plants and control plants were placed in a greenhouse as described above and watered by sub-irrigation to prevent wash-off of the test compounds. After 21 d, the condition of the test plants as compared with that of the untreated plants was determined visually and scored on a scale of 0 to 100 percent where 0 corresponds to no injury and 100 corresponds to complete kill.
# (§4) By applying the well-accepted probit analysis as described by J. Berkson in Journal of the American Statistical Society 1953, 48, 565, and by D. Finney in “Probit Analysis” Cambridge University Press (1952), the above data can be used to calculate GR20 and GR80 values, which are defined as growth reduction factors that correspond to the effective dose of herbicide required to kill or control 20 percent or 80 percent, respectively, of a target plant.
# [2] = test system: lambsquarters (Chenopodium album); experiment: Postemergence herbicidal activity in oilseed rape (canola), lambsquarters; parameters: unit: g ai/ha; settings: oilseed rape (canola) test, visual rating after 21 d, probit analysis, dose to kill or control 80 percent
# Experimental: as §1, §2, §3, §4
# [3] = test system: wild buckwheat (Polygonum convululus); experiment: Postemergence herbicidal activity in corn, wild buckwheat; settings: corn test, visual rating after 21 d, probit analysis, dose to kill or control 80 percent
# Experimental: as §1, with “corn” for “oilseed rape (canola)”, “MetroMix” for “MetroMix®”, “7-21” for “15-28”, “second” for “third or fourth”, “first or second” for “fourth”
# A weighed amount, determined by the highest rate to be tested, of each test compound was dissolved in 4 mL of a 97:3 v/v mixture of acetone and DMSO to obtain concentrated stock solutions. […] The concentrated stock solutions obtained were diluted with 20 mL of an aqueous mixture containing acetone, water, isopropyl alcohol, DMSO, Atplus 411F crop oil concentrate, and Triton X-155 surfactant in a 48.5:39:10:1.5:1.0:0.02 v/v ratio to obtain spray solutions containing the highest application rates. […]
# as §3, with “kill. […]” for “kill.”
SMILES,LAMPU GR80 [1],CHEAL GR80 [2],POLCO GR80 [3] [g ai/ha]
"COc1c(Cl)ccc(-c2cc(N)c(Cl)c(C(=O)NOCC(C)C)n2)c1F [Compound 1, 4-amino-3-chloro-6-(4-chloro-2-fluoro-3-methoxyphenyl)-N-(2-methylpropoxy)picolinamide]",<4.38,<8.75,<4
"CONC(=O)c1nc(-c2ccc(Cl)c(OC)c2F)cc(N)c1Cl [Compound 2, 4-Amino-3-chloro-6-(4-chloro-2-fluoro-3-methoxyphenyl)-N-methoxypicolinamide]",<4.38,22,6

# From US20130324412A1, “N-ALKOXYAMIDES OF 6-(SUBSTITUTED PHENYL)-4-AMINOPICOLINATES AND 2-(SUBSTITUTED PHENYL)-6-AMINO-4-PYRIMIDINECARBOXYLATES AND THEIR USE AS SELECTIVE HERBICIDES FOR CROPS” (DOW AGROSCIENCES LLC, priority 2009, published 2013)
